Test results from patent EP4775577A1, “RAS INHIBITOR” (Tyligand Bioscience (Shanghai) Limited, priority 2023, dated 2025).
Read-outs that look alike come from different tables or passages of the source.

Columns and labels:
[1] = test system: KRAS G12V mutant NCI-H727 cells; test: Proliferation inhibition of NCI-H727 cells, 3D CellTiter-Glo assay (Method B); assay type: cell-based, human; settings: 3D culture with 0.65% methylcellulose, 5 days, CTG
Experimental: NCI-H727 cells (Nanjing Kebai Biotechnology Co., Ltd., catalog number CBP60182, adherent, culture medium RPMI-1640+10%FBS (GIBCO, Cat#10091-148)) were cultured at 37°C, 5% CO2, and 95% humidity.
3D cell viability assay: Cells in the logarithmic growth phase were harvested and counted using a platelet counter. Cell viability was assessed using the trypan blue exclusion method to ensure a viability of over 90%. The 3D cell culture medium was prepared by adding 1% MC (methylcellulose, Sigma, Cat#M0512) to RPMI-1640 medium and 10% FBS. The cell concentration was adjusted to approximately 25,000 cells/mL using the 3D medium, and the methylcellulose (MC) content was set to 0.65%. Then, 80 µL of cell suspension was added to each 96-well clear, flat-bottomed, black-walled plate (Greiner, Cat# 655096). The cells in the 96-well plates were cultured overnight at 37°C and 5% CO2.
Drug preparation for IC50 assay: A 5-fold drug solution was prepared using culture medium. 20 µL of the drug solution was added to each well of a 96-well plate seeded with cells to achieve a working concentration of up to 10 µM, with a 3× dilution, and 9 concentrations. 2 replicate wells for each drug concentration were set. The cells in the drug-treated 96-well plates were cultured at 37°C and 5% CO2 for additional 5 days, then CTG assay (CellTiter-Glo® Luminescent Cell Viability Assay (Promega, Cat#G7573)) were performed.
The cell plate was equilibrated to room temperature for 30 minutes and the CTG reagent was thawed. 50 µL of CTG solution was added to each well for detection and the plate was shaken on an orbital shaker for 5 minutes to lyse the cells. The cell plate was then placed at room temperature for 25 minutes to stabilize the cryo-luminescence signal, and the cryo-luminescence value was read (EnVision® multi-plate reader, PerkinElmer#2105).
(§1) Data was analyzed using GraphPad Prism software. The dose-response-inhibition equation was used to fit the data to obtain the dose-response curve, and the IC50 value (nM) was calculated accordingly. [formula]

[2] = test system: KRAS G12D mutant AGS cells; test: Proliferation inhibition of AGS cells, CellTiter-Glo assay; assay type: cell-based, human; settings: 3 days, CTG, read-out: AGS IC50/nM
Experimental: AGS cells (Nanjing Kebai Biotechnology Co., Ltd., catalog number CBP60476, adherent, culture medium (F12K Nutrient Mixture+10% FBS (GIBCO, Cat#10091-148) were cultured at 37°C, 5% CO2, and 95% humidity at a density of 1500 cells/well. Cells in the logarithmic growth phase were harvested and counted using a Countstar automated cell counter based on the classic trypan blue staining method to ensure cell viability was above 90%. The cell concentration was adjusted, and 80 µL of cell suspension was added to each 96-well clear flat-bottomed, black-walled plate (Greiner, Cat# 655090). The cells in the 96-well plates were then cultured at 37°C and 5% CO2.
Drug preparation for IC50 assay: A 5-fold drug solution was prepared using culture medium. 20 µL of the drug solution was added to each well of a 96-well plate seeded with cells to achieve a working concentration of up to 10 µM, with a 3 × dilution, and a total of 9 concentrations. 2 replicate wells for each drug concentration were set. The cells in the drug-treated 96-well plates were cultured at 37°C and 5% CO2 for additional 3 days and then CTG assay were performed.
The cell plate was equilibrated to room temperature for 30 minutes and the CTG reagent (CellTiter-Glo® Luminescent Cell Viability Assay (Promega, Cat# G7573)) was thawed. 50 µL of CTG solution was added to each well and the plate was shaken on an orbital shaker for 2 minutes to lyse the cells. The cell plate was placed at room temperature for 10 minutes to stabilize the cryo-luminescence signal and the cryo-luminescence value was read (EnVision® Multifunctional microplate reader, PerkinElmer #2105).
as §1

[3] = Homo sapiens, NCI-H727, 120 h, Method B, read-out: NCI-H727 IC50/nM
[4] = Method B, read-out: NCI-H727 IC50/nM

Cc1cc(N)nc(-c2c(Cl)cc3c(N4Cc5cc(C(=O)N(C)C)nn5CCC4C)nc(OCC4(C)CN(C)CCC4=CF)nc3c2F)c1C(F)(F)F (single isomer, unassigned) [Example 213A]
IC50 [1, 3]: 43.1 nM
IC50 ([2]; Homo sapiens, AGS, 72 h): 49.6 nM

[2H]C([2H])([2H])N1CC/C(=C\F)[C@](C)(COc2nc(N3CCOC[C@@](C)(O)C3)c3cc(C#N)c(-c4c(F)ccc5sc(N)c(C#N)c45)c(F)c3n2)C1 [Example 88, 7-(2-Amino-3-cyano-5-fluorobenzo[b]thiophene-4-yl)-8-fluoro-2-(((S,E)-4-(fluoromethylene)-3-methyl-1-(methyl-d3)piperidine-3-yl)methoxy)-4-((S)-6-hydroxy-6-methyl-1,4-oxazacycloheptane-4-yl)quinazoline-6-carbonitrile]
IC50 [1, 3]: 23.3 nM

CN1CC/C(=C\F)[C@](C)(COc2nc(N3CCOC[C@@](C)(O)C3)c3cc(C(F)(F)F)c(-c4ccc(F)c5sc(N)c(C#N)c45)c(F)c3n2)C1 [Example 16]
IC50 ([1]; Homo sapiens, NCI-H727, 120 h, read-out: NCI-H727 IC50/nM, Method B): 5 nM
IC50 ([2]; Homo sapiens, AGS, 72 h): 13.2 nM

CN1CC/C(=C\F)[C@](C)(COc2nc(N3CC[C@@H](C#N)[C@H](O)C3)c3cc(C(F)(F)F)c(-c4c(F)ccc5sc(N)c(C#N)c45)c(F)c3n2)C1 (single isomer, unassigned) [Example 252]
IC50 [1, 3]: 2.1 nM
IC50 ([2]; Homo sapiens, AGS, 72 h): 41.5 nM

C[C@H]1CCn2nc(C(=O)N(C)C)cc2CN1c1nc(OC[C@]2(C)CN(C)CC/C2=C\F)nc2c(F)c(-c3ncc(F)c4sc(N)c(C#N)c34)c(C3CC3)cc12 [Example 168A]
IC50 [1, 3]: 85 nM
IC50 ([2]; Homo sapiens, AGS, 72 h): 42.1 nM

CCN1CC/C(=C\F)[C@](C)(COc2nc(N3Cc4c(COC)c(C(=O)N(C)C)nn4CC[C@@H]3C)c3cc(Cl)c(-c4c(F)ccc5sc(N)c(C#N)c45)c(OC)c3n2)C1 [Example 273A]
IC50 [1, 3]: 26.6 nM
IC50 ([2]; Homo sapiens, AGS, 72 h): 40.6 nM

CCN1CC[C@H](C(F)F)[C@](C)(COc2nc(N3Cc4c(COC)c(C(=O)N(C)C)nn4CC[C@@H]3C)c3cc(C(F)(F)F)c(-c4ncc(F)c5sc(N)c(C#N)c45)c(F)c3n2)C1 [Example 272A]
IC50 [1, 3]: 10.4 nM
IC50 ([2]; Homo sapiens, AGS, 72 h): 12.5 nM

[2H]C([2H])([2H])N1CCC(=CF)C(C)(COc2nc(N3CCCn4nc(C(=O)N(C)C)c(Cl)c4C3)c3cc(CC)c(-c4c(F)ccc5sc(N)c(C#N)c45)c(C)c3n2)C1 (centres unmarked) [Example 186]
IC50 [1, 3]: 5.4 nM
IC50 ([2]; Homo sapiens, AGS, 72 h): 4.4 nM

CN1CC/C(=C\F)[C@](C)(COc2nc(N3CCCn4nc(C(=O)N(C)C)nc4C3)c3cc(C(F)(F)F)c(-c4cccc5sc(N)c(C#N)c45)c(F)c3n2)C1 [Example 101]
IC50 ([2]; Homo sapiens, AGS, 72 h): 100 nM

[2H]C([2H])([2H])N1CC/C(=C\F)[C@](C)(COc2nc(N3CCCn4nc(C(=O)N(C)C)cc4C3)c3cc([N+](=O)[O-])c(-c4cccc5sc(N)c(C#N)c45)c(F)c3n2)C1 [Example 98]
IC50 [1, 3]: 27.1 nM
IC50 ([2]; Homo sapiens, AGS, 72 h): 15.8 nM

CN1CC/C(=C\F)[C@](C)(COc2nc(N3CCC[C@@](C)(O)C3)c3cc(C(F)(F)F)c(-c4cccc5sc(N)c(C#N)c45)c(F)c3n2)C1 (atropisomer, axis not shown) [Example 4A, (R)-2-amino-4-(8-fluoro-2-(((S,E)-4-(fluoromethylene)-1,3-dimethylpiperidine-3-yl)methoxy)-4-((R)-3-hydroxy-3-methylpiperidine-1-yl)-6-(trifluoromethyl)quinazoline-7-yl)benzo[b]thiophene-3-carbonitrile]
IC50 [1, 3]: 66.9 nM
IC50 ([2]; Homo sapiens, AGS, 72 h): 148 nM

CN1CC/C(=C\F)[C@](C)(COc2nc(N3CCOC[C@@](C)(O)C3)c3cc([N+](=O)[O-])c(-c4cccc5sc(N)c(C#N)c45)c(F)c3n2)C1 (atropisomer, axis not shown; (Ra)) [Example 87A]
IC50 [1, 4]: 3.8 nM

[2H]C([2H])([2H])N1CC/C(=C\F)[C@](C)(COc2nc(N3CCOC[C@@](C)(O)C3)c3cc(C#N)c(-c4cccc5sc(N)c(C#N)c45)c(F)c3n2)C1 [Example 90, 7-(2-Amino-3-cyanobenzo[b]thiophene-4-yl)-8-fluoro-2-(((S,E)-4-(fluoromethylene)-3-methyl-1-(methyl-d3)piperidine-3-yl)methoxy)-4-((S)-6-hydroxy-6-methyl-1,4-oxazacycloheptane-4-yl)quinazoline-6-carbonitrile]
IC50 [1, 3]: 58.3 nM

CN1CC/C(=C\F)[C@](C)(COc2nc(N3CCCn4nc(C(=O)N(C)C)cc4C3)c3cc(C#N)c(-c4cccc5sc(N)c(C#N)c45)c(F)c3n2)C1 [Example 103]
IC50 ([2]; Homo sapiens, AGS, 72 h): 301 nM

[2H]C([2H])([2H])N1CC[C@H](C(F)F)[C@](C)(COc2nc(N3CCOC[C@@](C)(O)C3)c3cc([N+](=O)[O-])c(-c4cccc5sc(N)c(C#N)c45)c(F)c3n2)C1 [Example 86]
IC50 ([2]; Homo sapiens, AGS, 72 h): 8.7 nM

CN1CC[C@H](C(F)F)[C@](C)(COc2nc(N3CCOC[C@@](C)(O)C3)c3cc(C(F)(F)F)c(-c4c(F)ccc5sc(N)c(C#N)c45)c(F)c3n2)C1 (single isomer, unassigned) [Example 65B]
IC50 [1, 4]: 39.3 nM

CN1CC[C@H](C(F)F)[C@](C)(COc2nc(N3CCOC[C@@](C)(O)C3)c3cc([N+](=O)[O-])c(-c4cccc5sc(N)c(C#N)c45)c(F)c3n2)C1 [Example 86]
IC50 [1, 4]: 4.5 nM

CN1CCC(=CF)C(C)(COc2nc(N3CCC(C#N)C(O)C3)c3cc(C(F)(F)F)c(-c4cccc5sc(N)c(C#N)c45)c(F)c3n2)C1 (centres unmarked) [Example 155]
IC50 [1, 4]: 21 nM

[2H]C([2H])([2H])N1CC[C@H](C(F)F)[C@](C)(COc2nc(N3CCOC[C@@](C)(O)C3)c3cc(C#N)c(-c4c(F)ccc5sc(N)c(C#N)c45)c(F)c3n2)C1 [Example 89, 7-(2-Amino-3-cyano-5-fluorobenzo[b]thiophene-4-yl)-2-(((3S,4S)-4-(difluoromethyl)-3-methyl-1-(methyl-d3)piperidine-3-yl)methoxy)-8-fluoro-4-((S)-6-hydroxy-6-methyl-1,4-oxazacycloheptane-4-yl)quinazoline-6-carbonitrile]
IC50 [1, 3]: 12.4 nM

CN1CC/C(=C\F)[C@](C)(COc2nc(N3CCCn4nc(C(=O)N(C)C)c(Cl)c4C3)c3cc(C4CC4)c(-c4c(F)ccc5sc(N)c(C#N)c45)c(F)c3n2)C1 (single isomer, unassigned) [Example 161B]
IC50 [2]: 33.5 nM

CN1CC[C@H](C(F)F)[C@](C)(COc2nc(N3CCOC[C@@](C)(O)C3)c3cc(C(F)(F)F)c(-c4c(F)ccc5sc(N)c(C#N)c45)c(F)c3n2)C1 (single isomer, unassigned) [Example 65A]
IC50 [1, 4]: < 1.5 nM

CN1CC/C(=C\F)[C@](C)(COc2nc(N3CCOC[C@@](C)(O)C3)c3cc([N+](=O)[O-])c(-c4cccc5sc(N)c(C#N)c45)c(F)c3n2)C1 [Example 87]
IC50 [1, 4]: 9 nM

CN1CC/C(=C\F)[C@](C)(COc2nc3c(F)c(-c4cccc5sc(N)c(C#N)c45)c(Cl)cc3c(N3CCCn4nc(C(=O)N(C)C)cc4C3)c2C#N)C1 [Example 102]
IC50 [1, 3]: 4270 nM

[2H]C([2H])([2H])N1CC/C(=C\F)[C@](C)(COc2nc(N3CCCn4nc(C(=O)N(C)C)c(Cl)c4C3)c3cc(Cl)c(-c4c(F)ccc5sc(N)c(C#N)c45)c(C)c3n2)C1 (single isomer, unassigned) [Example 179A]
IC50 ([2]; Homo sapiens, AGS, 72 h): 4.2 nM

[2H]C([2H])([2H])N1CC/C(=C\F)[C@](C)(COc2nc(N3Cc4c(F)c(C(=O)N(C)C)nn4CC[C@@H]3C)c3cc(CC)c(-c4c(F)ccc5sc(N)c(C#N)c45)c(F)c3n2)C1 (single isomer, unassigned) [Example 181A]
IC50 ([2]; Homo sapiens, AGS, 72 h): < 1.5 nM

[2H]C([2H])([2H])N1CC/C(=C\F)[C@](C)(COc2nc(N3Cc4cc(C(=O)N(C)C)nn4CC[C@@H]3C)c3cc(Cl)c(-c4c(F)ccc5sc(N)c(C#N)c45)c(C)c3n2)C1 (single isomer, unassigned) [Example 177A]
IC50 ([2]; Homo sapiens, AGS, 72 h): < 1.5 nM
